{"source": "patent US12312333B2", "about": "“SK channel positive allosteric modulators” (Chapman University, priority 2021, dated 2025)", "biological_target": "T1, human KCa3.1 channel (Homo sapiens, UniProt O15554+P0DP23)", "T1 construct": "expressed in transfected cells; host or cells: HEK293", "experiment": "Inside-out patch-clamp on KCa3.1 channels expressed in HEK293 cells", "type": "cell-based", "details": "for response of KCa3.1 channels: inside-out patch; for Emax: normalized to 10 μM Ca2+", "procedure": "The two newly synthesized compounds, 2o and 2q, were tested to determine whether they retained their subtype-selectivity. Neither 2o (FIG. 5A) nor 2q (FIG. 5B) elicited significant responses from the human KCa2.1 channel expressed in HEK293 cells. When compared with the responses from KCa2.2a channels to these two compounds, the differences became even more apparent (FIG. 5C), with the Emax values on KCa2.2a channels at ˜90%, whereas the Emax values on KCa2.1 channels were at ˜0% (FIG. 5D).\nThe effect of newly synthesized compounds on the KCa2.x/KCa3.1 channels was investigated as previously described (Nam, Y. W.; et al, Acta Physiol (Oxf) 2020, e13552; Nam, Y. W.; et al. Scientific reports 2018, 8 (1), 10749). Briefly, the rat KCa2.2a, human KCa2.1, human KCa2.3 or human KCa3.1 channels cDNA constructs were either generated in-house or through molecular cloning services (Genscript). The channel cDNAs, along with CaM and GFP, at a ratio of 7:4:2 (ORF ratios), were transfected into HEK293 cells by the calcium-phosphate method. KCa currents were recorded 1-2 days after transfection, with an Axon200B amplifier (Molecular Devices) at room temperature. The resistance of the patch electrodes ranged from 3-5 MΩ. The pipette solution contained (in mM): 140 KCl, 10 Hepes (pH 7.4), 1 MgSO4. The bath solution containing (in mM): 140 KCl, 10 Hepes (pH 7.2), 1 EGTA, 0.1 Dibromo-BAPTA, and 1 HEDTA was mixed with Ca^2+ to obtain the desired free Ca^2+ concentrations, calculated using the software by Chris Patton of Stanford University (https://somapp.ucdmc.ucdavis.edu/pharmacology/bers/maxchelator/webmaxc/webmaxcS.htm). […] Briefly, a standard curve was generated using the Ca^2+ buffers from the kit and a fluorescence Ca^2+ indicator. Then, the Ca^2+ concentrations of the bath solution were determined through interpolation on the standard curve.\nHigh resistance seals (>1 GΩ) were formed before inside-out patches were obtained. […] Currents were recorded by repetitive 1-s-voltage ramps from −100 mV to +100 mV from a holding potential of 0 mV. […]\nTo measure the effect of CyPPA (Alomone Labs) and newly synthesized compounds, the intracellular face was exposed to bath solutions with 0.15 μM Ca^2+. One minute after switching of bath solutions, ten sweeps with a 1-s interval were recorded at a series of concentrations of compound in the presence of 0.15 μM Ca^2+. The maximal KCa2.x/KCa3.1 current in response to 10 μM Ca^2+ was then recorded.\nPatch-clamp recordings were analyzed using Clampfit 10.5 (Molecular Devices LLC) and concentration-response curves were analyzed in GraphPad Prism 9.0.2 (GraphPad Software Inc.). […] EC50 values and Hill coefficients were determined by fitting the data points to a standard concentration-response curve (Y=100/(1+(X/EC50)^−Hill)). […]", "data": [{"smiles": "Cc1cc(Nc2ccc(F)c(Cl)c2)nc(-n2nc(C)cc2C)n1", "note": "[Compound 2o, N-(3-Chloro-4-fluorophenyl)-2-(3,5-dimethyl-1H-pyrazol-1-yl)-6-methyl-pyrimidin-4-amine]", "values": [{"measurement": "response of KCa3.1 channels", "value": "mostly insensitive"}, {"measurement": "Emax", "value": "26.1 ± 7.67", "unit": "%"}]}, {"smiles": "Cc1cc(Nc2cc(Cl)ccc2F)nc(-n2nc(C)cc2C)n1", "note": "[Compound 2q, N-(5-Chloro-2-fluorophenyl)-2-(3,5-dimethyl-1H-pyrazol-1-yl)-6-methylpyrimidin-4-amine]", "values": [{"measurement": "response of KCa3.1 channels", "value": "mostly insensitive"}, {"measurement": "Emax", "value": "-0.79 ± 1.19", "unit": "%"}]}]}
